# Measured values published in patent US7071344B1, “Vitamin D derivatives with cyclopropyl rings in the lateral chains, a method and intermediate products for the production thereof and the utilization thereof for producing medicaments” (Schering AG, priority 1997, dated 2006).
# Columns and labels:
# HL 60 cells = experiment: differentiation induction of HL 60 cells to macrophages (NBT reduction); format: cell-based, human; settings: dose ratio test substance/calcitriol for comparable semi-maximum differentiation induction; 96 hours incubation
# Procedure: The differentiation-stimulating action of calcitriol analogues is also detected quantitatively.
# It is known in the literature [Mangelsdorf, D. J. et al., J. Cell. Biol. 98: 391 (1984)] that the treatment of human leukemia cells (promyelocyte cell line HL 60) in vitro with calcitriol induces the differentiation of cells to macrophages.
# HL 60 cells are cultivated in tissue culture medium (RPMI 10% fetal calf serum) at 37° C. in an atmosphere of 5% CO2 in air.
# For substance testing, the cells are centrifuged off, and 2.0×10^5 cells/ml in phenol red-free tissue culture medium is taken up. The test substances are dissolved in ethanol and diluted with tissue culture medium without phenol red to the desired concentration. The dilution stages are mixed with the cell suspension at a ratio of 1:10, and 100 μl each of this cell suspension that is mixed with substance is pipetted into an indentation of a 96-hole plate. For control, a cell suspension is mixed analogously with the solvent.
# After incubation for 96 hours at 37° C. in 5% CO2 in air, 100 μl of an NBT-TPA solution (nitro blue tetrazolium (NBT), final concentration in the batch of 1 mg/ml, tetradecanoyl phorbolmyristate-13-acetate (TPA), final concentration in the batch of 2×10^−7 mol/l) is pipetted into each indentation of the 96-hole plate in the cell suspension.
# By incubation for 2 hours at 37° C. and 5% CO2 in air, NBT is reduced to insoluble formazan because of the intracellular oxygen radical release, stimulated by TPA, in the cells that are differentiated to macrophages.
# To complete the reaction, the indentations of the 96-hole plate are suctioned off, and the cells are affixed to the bottom of the plate by adding methanol and dried after affixing. To dissolve the intracellular formazan crystals that are formed, 100 μl of potassium hydroxide (2 mol/l) and 100 μl of dimethyl sulfoxide are pipetted into each indentation and ultrasonically treated for 1 minute. The concentration of formazan is measured by spectrophotometry at 650 nm.
# As a yardstick for the differentiation induction of HL 60 cells to macrophages, the concentration of formed formazan applies.
# [1] = acute hypercalcemic action (serum-calcium) in rats; format: in vivo, rat; settings: dose ratio test substance/calcitriol for comparable hypercalcemic action; one-time subcutaneous administration, male rats
# Procedure: To determine the acute hypercalcemic action of various calcitriol derivatives, the test that is described below is carried out:
# The action of control (solution base), reference substance (1,25-dihydroxy vitamin D3=calcitriol) and test substance is tested in each case after one-time subcutaneous administration in groups of 10 healthy male rats (140–170 g). During the testing time, the rats are kept in special cages to determine the excretion of water and mineral substances. Urine is collected in 2 fractions (0–16 hours and 16–22 hours). An oral dose of calcium (0.1 mmol of calcium in 6.5% alpha-hydroxypropylcellulose, 5 ml/animal) replaces at 1600 hours the calcium intake that is lacking by food deprivation. At the end of the test, the animals are killed by decapitation and exsanguinated to determine the serum-calcium values. For the primary screen test in vivo, an individual standard dose (200 μg/kg) is tested. For selected substances, the result is supported by establishing a dose-effect relation.
# A hypercalcemic action is shown in serum-calcium level values that are higher than in the control.
# The significance of differences between substance groups and controls and between test substance and reference substance are supported with suitable statistical processes.
# [2] = metabolic stability in liver homogenate; format: in vitro ADME; settings: half-life in the liver homogenate (rat)
# Procedure: To determine the metabolic stability, the test substance is incubated with tissue homogenate (from the rat liver) in the presence of buffer systems. The drop in starting concentration is tracked as a function of time. After a certain time, the incubation is stopped, and the unaltered test substance is extracted from the homogenate (diethyl ether), concentrated by evaporation under nitrogen, isolated via HPLC (mobile solvent: acetonitrile/water) and detected using UV-absorption.
# calcitriol receptor = target: T1, calcitriol receptor (Sus scrofa, UniProt A3RGC1); experiment: calcitriol-receptor test (competition with 3H-calcitriol); settings: competition factor = concentration of test substance / concentration of calcitriol at 50% competition; protein extract from intestines of juvenile pigs
# T1 sequence (A3RGC1 1-427): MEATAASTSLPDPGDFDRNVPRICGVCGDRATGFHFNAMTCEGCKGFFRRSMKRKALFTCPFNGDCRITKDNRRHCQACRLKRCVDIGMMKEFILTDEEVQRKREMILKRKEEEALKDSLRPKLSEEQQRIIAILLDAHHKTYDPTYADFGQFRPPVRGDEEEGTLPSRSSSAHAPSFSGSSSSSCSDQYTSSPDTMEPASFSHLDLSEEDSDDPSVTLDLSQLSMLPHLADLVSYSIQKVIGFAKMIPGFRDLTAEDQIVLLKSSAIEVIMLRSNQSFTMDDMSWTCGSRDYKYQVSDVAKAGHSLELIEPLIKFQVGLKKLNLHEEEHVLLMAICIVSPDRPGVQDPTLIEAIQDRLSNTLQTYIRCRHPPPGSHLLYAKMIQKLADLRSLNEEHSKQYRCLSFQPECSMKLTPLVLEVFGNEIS
# Procedure: The vitamin D activity of the substances according to the invention is determined with the aid of the calcitriol-receptor test. It is carried out using a protein extract from the intestines of juvenile pigs.
# Then, the samples are centrifuged at 10,000 g for 5 minutes at 4° C. The supernatant is decanted and measured in a β-counter after 1 hour of equilibration in Picofluor 15™.
# The competition curves that are obtained at various concentrations of test substance as well as of reference substance (unlabeled calcitriol) at constant concentration of the reference substance (^3H-calcitriol) are placed in relation to one another, and a competition factor (KF) is determined.
# It is defined as a quotient of the concentrations of the respective test substance and the reference substance, which are necessary for 50% competition:
Compound,DR HL 60 (HL 60 cells),DR Ca [1],T½ [2] [h],KF (calcitriol receptor)
"C=C1/C(=C\C=C2/CCC[C@]3(C)[C@@H]([C@H](C)/C=C/CCC4(C(C)=O)CC4)CC[C@@H]23)C[C@@H](O)C[C@@H]1O [Compound 126, (5Z,7E,22E)-(1S,3R)-25-Acetyl-26,27-cyclo-24a-homo-9,10-secocholesta-5,7,10(19),22-tetraene-1,3-diol]",0.5,20,2,5
"C=C1C(=CC=C2CCCC3(C)C2CCC3C(C)C=CC(O)C2(CCCC)CC2)CC(O)CC1O [Compound 226b, (5Z,7E,22E)-(1S,3R,24R)-25-butyl-26,27-cyclo-9,10-secocholesta-5,7,10(19),22-tetraene-1,3,24-triol]",0.4,>5,1.67,3
"C=C1/C(=C\C=C2/CCC[C@]3(C)[C@@H]([C@H](C)/C=C/[C@@H](O)C4(/C=C/CC)CC4)CC[C@@H]23)C[C@@H](O)C[C@@H]1O [Compound 221b, [5Z,7E,22E,25(E)]-(1S,3R,24R)-25-(1-butenyl)-26,27-cyclo-9,10-secocholesta-5,7,10(19),22-tetraene-1,3,24-triol]",0.1,10,1.5,2
"C=C1C(=CC=C2CCCC3(C)C2CCC3C(C)C=CCC2(C(=O)CCCCC)CC2)CC(O)CC1O [Compound 81, (5Z,7E,22E)-(1S,3R)-25-(1-Oxohexyl)-26,27-cyclo-9,10-secocholesta-5,7,10(19),22-tetraene-1,3-diol]",9,>>300,>2,40
"C=C1/C(=C\C=C2/CCC[C@]3(C)[C@@H]([C@H](C)/C=C/[C@@H](O)CCC4(C(=O)CCC)CC4)CC[C@@H]23)C[C@@H](O)C[C@@H]1O [Compound 175b, (5Z,7E,22E)-(1S,3R,24S)-25-(1-oxobutyl)-26,27-cyclo-24a,24b-dihomo-9,10-secocholesta-5,7,10(19),22-tetraene-1,3,24-triol]",3,>100,1.5,1
"C=C1/C(=C\C=C2/CCC[C@]3(C)[C@@H]([C@H](C)/C=C/[C@@H](O)CCC4(C(C)=O)CC4)CC[C@@H]23)C[C@@H](O)C[C@@H]1O [Compound 168b, (5Z,7E,22E)-(1S,3R,24S)-25-acetyl-26,27-cyclo-24a,24b-dihomo-9,10-secocholesta-5,7,10(19),22-tetraene-1,3,24-triol]",7,>100,2,3
"C=C1/C(=C\C=C2/CCC[C@]3(C)[C@@H]([C@H](C)/C=C/CC4(C(C)=O)CC4)CC[C@@H]23)C[C@@H](O)C[C@@H]1O [Compound 66, (5Z,7E,22E)-(1S,3R)-25-Acetyl-26,27-cyclo-9,10-secocholesta-5,7,10(19),22-tetraene-1,3-diol]",0.5,30,1.83,10
